target: T1, unphosphorylated VEGF-R2Δ50 (FLVK) (Homo sapiens, UniProt P35968, DEL940-989/E990V); test: VEGF-R2 coupled spectrophotometric assay, unphosphorylated enzyme (FLVK); assay type: biochemical; conditions: Table 3; at 50 nM
T1 construct: VEGF-R2Δ50 contains residues 806-939 and 990-1171; made in house; host or cells: baculovirus/insect cells
From the text: VEGF-R2 Construct for Assay: This construct determines the ability of a test compound to inhibit tyrosine kinase activity. A construct (VEGF-R2Δ50) of the cytosolic domain of human vascular endothelial growth factor receptor 2 (VEGF-R2) lacking the 50 central residues of the 68 residues of the kinase insert domain was expressed in a baculovirus/insect cell system. Of the 1356 residues of full-length VEGF-R2, VEGF-R2Δ50 contains residues 806-939 and 990-1171, and also one point mutation (E990V) within the kinase insert domain relative to wild-type VEGF-R2. Autophosphorylation of the purified construct was performed by incubation of the enzyme at a concentration of 4 μM in the presence of 3 mM ATP and 40 mM MgCl2 in 100 mM Hepes, pH 7.5, containing 5% glycerol and 5 mM DTT, at 4° C. for 2 h. […] See Parast et al., Biochemistry, 37, 16788-16801 (1998).
The production of ADP from ATP that accompanies phosphoryl transfer was coupled to oxidation of NADH using phosphoenolpyruvate (PEP) and a system having pyruvate kinase (PK) and lactic dehydrogenase (LDH). The oxidation of NADH was monitored by following the decrease of absorbance at 340 nm (e340=6.22 cm^−1 mM^−1) using a Beckman DU 650 spectrophotometer. Assay conditions for phosphorylated VEGF-R2Δ50 (indicated as FLVK-P in the tables below) were the following: 1 mM PEP; 250 μM NADH; 50 units of LDH/mL; 20 units of PK/mL; 5 mM DTT; 5.1 mM poly(E4Y1); 1 mM ATP; and 25 mM MgCl2 in 200 mM Hepes, pH 7.5. Assay conditions for unphosphorylated VEGF-R2Δ50 (indicated as FLVK in the tables) were the following: 1 mM PEP; 250 μM NADH; 50 units of LDH/mL; 20 units of PK/mL; 5 mM DTT; 20 mM poly(E4Y1); 3 mM ATP; and 60 mM MgCl2 and 2 mM MnCl2 in 200 mM Hepes, pH 7.5. Assays were initiated with 5 to 40 nM of enzyme. Ki values were determined by measuring enzyme activity in the presence of varying concentrations of test compounds. The data were analyzed using Enzyme Kinetic and Kaleidagraph software.

T1 sequence (P35968 with tags, fused parts or gaps DEL940-989/E990V limits assumed): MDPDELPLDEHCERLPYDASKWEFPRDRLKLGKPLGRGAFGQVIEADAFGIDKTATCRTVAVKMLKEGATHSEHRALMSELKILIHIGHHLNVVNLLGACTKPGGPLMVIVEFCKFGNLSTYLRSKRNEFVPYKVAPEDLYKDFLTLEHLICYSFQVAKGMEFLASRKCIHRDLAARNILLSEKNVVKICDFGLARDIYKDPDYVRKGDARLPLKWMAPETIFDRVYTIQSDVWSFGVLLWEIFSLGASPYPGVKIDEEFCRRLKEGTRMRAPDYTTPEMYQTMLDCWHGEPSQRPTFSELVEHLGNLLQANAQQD

Compound	inhibition at 0.05 µM
COc1cccc(C(=O)Nc2ccc(C)c(-c3noc(-c4sc(Nc5ccc(N(C)C)cc5)nc4N)n3)c2)c1 [B(7), 3-[3-[(3-methoxybenzoyl)amino]-6-methyl-phenyl]-5-[2-[4-(N,N-dimethylaminophenyl)amino]-4-amino-5-thiazolyl]-1,2,4-oxadiazole]	61%
COc1cccc(C(=O)Nc2cc(-c3csc(-c4sc(NC(=O)NCCc5ccncc5)nc4N)n3)c(F)cc2F)c1 [O(30), N-(5-{4′-Amino-2′-[3-(2-pyridin-4-yl-ethyl)-ureido]-[2,5′]bithiazolyl-4-yl}-2,4-difluoro-phenyl)-3-methoxy-benzamide]	39%

Next, values leading:

inhibition at 0.05 µM	Compound
3%	COc1cc(Nc2nc(N)c(-c3nc(-c4cc(N)ccc4F)no3)s2)cc(OC)c1OC [C(4), 3-[3-amino-6-fluorophenyl]-5-[2-[(3,4,5-trimethoxyphenyl)amino]-4-amino-5-thiazolyl]-1,2,4-oxadiazole]
36%	COc1cccc(C(=O)Nc2cc(-c3noc(-c4sc(NC(C)C)nc4N)n3)c(F)cc2F)c1 [B(19), N-{5-[5-(4-Amino-2-isopropylamino-thiazol-5-yl)-[1,2,4]oxadiazol-3-yl]-2,4-difluoro-phenyl}-3-methoxy-benzamide]
0%	COc1cc(F)c(-c2noc(-c3sc(Nc4cc(OC)c(OC)c(OC)c4)nc3N)n2)cc1NC(=O)OC(C)(C)C [B(41)]
22%	COc1cccc(C(=O)Nc2cc(-c3csc(-c4sc(NC(=O)NC[C@H]5CCCO5)nc4N)n3)c(F)cc2F)c1 [O(24), N-[5-(4′-Amino-2′-{3-[(R)-1-(tetrahydro-furan-2-yl)methyl]-ureido}-[2,5′]bithiazolyl-4-yl)-2,4-difluoro-phenyl]-3-methoxy-benzamide]
15%	COc1cc(F)c(-c2noc(-c3sc(Nc4cc(OC)c(OC)c(OC)c4)nc3N)n2)cc1N [C(5), 3-[2-fluoro-4-methoxy-5-aminophenyl]-5-[2-[(3,4,5-trimethoxyphenyl)amino]-4-amino-5-thiazolyl]-1,2,4-oxadiazole]
11%	COc1cc(Nc2nc(N)c(-c3nc(-c4cccc(C(=O)O)c4)no3)s2)cc(OC)c1OC [B(43)]

same assay, conditions: Table 3; some entries 'Slow binder'

Compound	Ki
CCn1nc(C)cc1C(=O)Nc1ccc(C)c(-c2noc(-c3sc(Nc4ccccc4)nc3N)n2)c1 [B(26)]	2.8 nM
COc1cccc(C(=O)Nc2cc(-c3csc(-c4sc(NC(=O)NCCN5CCOCC5)nc4N)n3)c(F)cc2F)c1 [O(26), N-(5-{4′-Amino-2′-[3-(2-morpholin-4-yl-ethyl)-ureido]-[2,5′]bithiazolyl-4-yl}-2,4-difluoro-phenyl)-3-methoxy-benzamide]	1.4 nM
Cc1ccc(NC(=O)OC(C)(C)C)cc1-c1noc(-c2sc(Nc3ccc4nc[nH]c4c3)nc2N)n1 [B(24)]	2.1 nM
COc1cc(Nc2nc(N)c(-c3nc(-c4cccc(NC(=O)c5cccc(C(N)=O)c5)c4)no3)s2)cc(OC)c1OC [D(71)]	4.1 nM
COc1cccc(C(=O)Nc2cc(-c3noc(-c4sc(NC(=O)NCC(N)=O)nc4N)n3)c(F)cc2F)c1 [O(3), N-(5-{5-[4-Amino-2-(3-carbamoylmethyl-ureido)-thiazol-5-yl]-[1,2,4]oxadiazol-3-yl}-2,4-difluoro-phenyl)-3-methoxy-benzamide]	0.57 nM

The next lines start with the values.

Ki	Compound
0.3 nM	CCn1nc(C)cc1C(=O)Nc1ccc(C)c(-c2noc(-c3sc(Nc4ccc(N5CCN(C)CC5)nc4)nc3N)n2)c1 [B(27)]
5.1 nM	C/C=C(/C)C(=O)Nc1ccc(C)c(-c2noc(-c3sc(Nc4ccc(N5CCN(C)CC5)nc4)nc3N)n2)c1 [B(31)]
0.1 nM	CCn1nc(C)cc1C(=O)Nc1ccc(C)c(-c2noc(-c3sc(Nc4cccc(CO)c4)nc3N)n2)c1 [B(8)]
0.28 nM	COc1cccc(C(=O)Nc2cc(-c3noc(-c4sc(NC(=O)NCCN5CCOCC5)nc4N)n3)c(F)cc2F)c1 [O(1), N-[5-(5-{4-Amino-2-[3-(2-morpholin-4-yl-ethyl)-ureido]-thiazol-5-yl}-[1,2,4]oxadiazol-3-yl)-2,4-difluoro-phenyl]-3-methoxy-benzamide]
29 nM	COc1ccc(NC(=O)OC(C)(C)C)cc1-c1noc(-c2sc(Nc3cc(OC)c(OC)c(OC)c3)nc2N)n1 [B(25)]

Reference: US6620828B2, “Thiazole compounds and pharmaceutical compositions for inhibiting protein kinases and methods for their use” (Agouron Pharmaceuticals, Inc., priority 1999, dated 2003)
